What was measured:
[1] = system: 6D-2 cells (MCF-7 human breast cancer cells stably transfected with luciferase linked to the 5′ and 3′UTRs of human HER2); experiment: Cellular toxicity, MTS cell viability, 6D-2 cells; format: cell-based; conditions: for IC50: MTS viability
Protocol: (§1) 6D-2 cells (MCF-7 human breast cancer cells stably transfected with luciferase linked to the 5′ and 3′UTRs of human HER2) were added to 96-well plates at 7500 cells per well in 200 μL medium and incubated for 24 hours at 100% humidity, 5% CO2, and 37° C. Compounds were diluted from DMSO stock solutions into medium and were added at various concentrations. The 6D-2 cells were incubated for 16 hours at which time the volume of medium in each well was reduced to 100 μL using a plate washer. 20 μL of MTS cell viability reagent (Promega, Madison, Wis.) was then added to each well, and the plates were incubated for 1-4 hours. A plate containing wells with 100 μL medium plus MTS reagent was prepared to determine the background reading. The plates were read on the Wallac 2 plate reader (PerkinElmer Life Science, Boston, Mass.) at 490 nm. Percent viability was calculated as (O.D. of compound treated cells−background O.D.)/(O.D. of DMSO treated cells−background O.D.)×100. MT-4 cells (adult human T-cell leukemia cells) were plated at 1.5×10^5 cells per well in 200 μL medium and incubated for at least one hour before the addition of compounds. The cells were incubated for 5 days at 100% humidity, 5% CO2, and 37° C. Cell viability was determined as described for 6D-2 cells.
(§2) Compounds of the invention containing a pyrrolidine substituent were tested for toxicity to cancerous and non-cancerous cells. 6D-2 cellular activity is representative of potency as an antitumor agent. MT-4 cellular activity is representative of general toxicity. A high IC50 for MT-4 cells and a low IC50 for 6D-2 cells is indicative of a compound of potential therapeutic use in treating or preventing proliferative diseases, such as cancer.

[2] = system: MT-4 cells (adult human T-cell leukemia cells); experiment: Cellular toxicity, MTS cell viability, MT-4 cells; format: cell-based; conditions: for IC50: 5 day, MTS viability
Protocol: as §1, §2

[3] = Cellular toxicity, MTS cell viability, 6D-2 cells; format: cell-based, human; conditions: Homo sapiens, MCF7, MTS viability
Protocol: as §1, §2

Structure (SMILES)	IC50 [1] [nM]	IC50 [2] [nM]	further results
CC(=O)Nc1ccc(NC2=C(N3CCCC3)C(=O)c3cnccc3C2=O)cc1 [Example 3A, 6-(N′-4-aminoacetanilide)-7-pyrrolidino-5,8-isoquinolinedione]	370	5160	–
CC(=O)Nc1ccc(NC2=C(N3CCCC3)C(=O)c3ccncc3C2=O)cc1 [Example 3B, 7-(N′-4-aminoacetanilide)-6-pyrrolidino-5,8-isoquinolinedione]	4080	6790	–
O=C1C(Nc2ccc(F)cc2)=C(N2CCCC2)C(=O)c2cnccc21 [Example 4, 6-(N′-4-fluoroanilino)-7-pyrrolidino-5,8-isoquinolinedione]	1480	2510	–
O=C1C(Nc2ccc(F)cc2)=C(N2CCCC2)C(=O)c2ncccc21 [Example 5, 6-(N-4-fluoroanilino)-7-pyrrolidino-5,8-quinolinedione]	770	6690	–
CC(C)(C)OC(=O)Nc1ccc(NC2=C(N3CCCC3)C(=O)c3ccccc3C2=O)cc1 [Example 6, N-4-((3-pyrrolidino-1,4-naphthalenedion-2-yl)amino)phenyl-O-1.1-dimethylethylcarbamate]	570	2780	–
Nc1ccc(NC2=C(N3CCCC3)C(=O)c3ccccc3C2=O)cc1 [Example 7, 2-(N-4-aminoanilino)-3-pyrrolidino-1,4-naphthoquinone]	70	160	–
COc1ccc(NC2=C(N3CCCC3)C(=O)c3ccccc3C2=O)cn1 [Example 8, 2-(N-2-methoxy-5-aminopyridine)-3-pyrrolidino-1,4-naphthoquinone]	120	1110	–
COc1ccc(NC2=C(N3CCCC3)C(=O)c3ccccc3C2=O)cc1 [Example 9, 2-(N-4-methoxyanilino)-3-pyrrolidino-1,4-naphthoquinone]	100	520	–
Cc1cc(=O)oc2cc(NC3=C(N4CCCC4)C(=O)c4ccccc4C3=O)ccc12 [Example 10, 7-((3-pyrrolidino-1,4-naphthalenedion-2-yl)amino)-4-methylcoumarin]	–	–	IC50 [3]: 6780 nM; IC50 ([2]; Homo sapiens, MT4, 120 h): 1180 nM
CC(C)NC(=S)Nc1ccc(NC2=C(N3CCCC3)C(=O)c3ccccc3C2=O)cc1 [Example 11, N^1-4-((3-pyrrolidino-1,4-naphthalenedion-2-yl)amino)phenyl-N^2-(1-methylethyl)thiourea]	330	6150	–
CNC(=S)Nc1ccc(NC2=C(N3CCCC3)C(=O)c3ccccc3C2=O)cc1 [Example 12, N^1-4-((3-pyrrolidino-1,4-naphthalenedion-2-yl)amino)phenyl-N^2-methylthiourea]	100	8700	–
NCC(=O)c1cccc(NC2=C(N3CCCC3)C(=O)c3ccccc3C2=O)c1 [Example 13, 2-(N-3-aminoacetylanilino)-3-pyrrolidino-1,4-naphthoquinone]	–	–	6D-2 24 hr, percent @.10 μM [1]: 70% @.10 μM; MT-4 5 day, percent @.10 μM [2]: 80% @.10 μM
O=C1C(Nc2ccccc2)=C(N2CCCC2)C(=O)c2ccccc21 [Example 14, 2-(N-anilino)-3-pyrrolidino-1,4-naphthoquinone]	760	2100	–
Nc1ccc(C(=O)N(C2=C(N3CCCC3)C(=O)c3ccccc3C2=O)c2ccccc2)cc1 [Example 15, 2-(N-4-aminobenzoylanilino)-3-pyrrolidino-1,4-naphthoquinone]	–	–	6D-2 24 hr, percent @.10 μM [1]: 60% @.10 μM; IC50 ([2]; Homo sapiens, MT4, 120 h): 1000 nM
O=C1C(Nc2cccc(F)c2)=C(N2CCCC2)C(=O)c2ccccc21 [Example 16, 2-(N-3-fluoroanilino)-3-pyrrolidino-1,4-naphthoquinone]	1360	–	MT-4 5 day, percent @.10 μM [2]: 68% @.10 μM
CN(C)C1=C(Nc2cccc(F)c2)C(=O)c2ccccc2C1=O [Example 17, 2-(N-3-fluoroanilino)-3-dimethylamino-1,4-naphthoquinone]	10000	–	MT-4 5 day, percent @.10 μM [2]: 100% @.10 μM

Structure (SMILES)	IC50 [1] [nM]	IC50 [2] [nM]	further results
CC1CCCN1C1=C(Nc2ccc(F)cc2)C(=O)c2ccccc2C1=O (stereo not shown) [Example 18, 2-(N-4-fluoroanilino)-3-(2-methylpyrrolidino)-1,4-naphthoquinone]	2630	5240	–
COC[C@@H]1CCCN1C1=C(Nc2ccc(F)cc2)C(=O)c2ccccc2C1=O [Example 19, 2-(N-4-fluoroanilino)-3-(2-(S)-methoxymethylpyrrolidino)-1,4-naphthoquinone]	8950	–	MT-4 5 day, percent @.10 μM [2]: 97% @.10 μM
O=C(Nc1ccc(NC2=C(N3CCCC3)C(=O)c3ccccc3C2=O)cc1)c1ccco1 [Example 20, 2-(4-(2-furanoylamino)phenylamino)-3-pyrrolidino-1,4-naphthoquinone]	–	–	IC50 [3]: 60 nM; IC50 ([2]; Homo sapiens, MT4, 120 h): 110 nM
CC(C)OC(=O)Nc1ccc(NC2=C(N3CCCC3)C(=O)c3ccccc3C2=O)cc1 [Example 21, N-4-((3-pyrrolidino-1,4-naphthalenedion-2-yl)amino)phenyl-O-(1-methylethyl)carbamate]	1380	2000	–
COC(=O)Nc1ccc(NC2=C(N3CCCC3)C(=O)c3ccccc3C2=O)cc1 [Example 22, N-4-((3-pyrrolidino-1,4-naphthalenedion-2-yl)amino)phenyl-O-methylcarbamate]	140	470	–
COC(=O)Nc1cccc(NC2=C(N3CCCC3)C(=O)c3ccccc3C2=O)c1 [Example 23, N-3-((3-pyrrolidino-1,4-naphthalenedion-2-yl)amino)phenyl-O-methylcarbamate]	870	10200	–
CC(C)NC(=O)Nc1ccc(NC2=C(N3CCCC3)C(=O)c3ccccc3C2=O)cc1 [Example 24, N′-4-((3-pyrrolidino-1,4-naphthalenedion-2-yl)amino)phenyl-N^2-(1-methylethyl)urea]	180	1680	–
O=C(Nc1ccccc1)Nc1ccc(NC2=C(N3CCCC3)C(=O)c3ccccc3C2=O)cc1 [Example 25, N^1-4-((3-pyrrolidino-1,4-naphthalenedion-2-yl)amino)phenyl-N^2-phenylurea]	1060	2220	–
CNC(=O)Nc1ccc(NC2=C(N3CCCC3)C(=O)c3ccccc3C2=O)cc1 [Example 26]	110	750	–
COCCNC(=O)Nc1ccc(NC2=C(N3CCCC3)C(=O)c3ccccc3C2=O)cc1 [Example 27, N′-4-((3-pyrrolidino-1,4-naphthalenedion-2-yl)amino)phenyl-N^2-(2-methoxyethyl)urea]	210	560	–
NC(=O)Nc1ccc(NC2=C(N3CCCC3)C(=O)c3ccccc3C2=O)cc1 [Example 28, 2-(N-(4-carbamidoanilino))-3-pyrrolidino-1,4-naphthoquinone]	310	–	MT-4 5 day, percent @ 10 μM [2]: 56% @ 10 μM
O=C1C(Nc2ccc(F)c(F)c2)=C(N2CCCC2)C(=O)c2ccccc21 [Example 29, 2-(N-3,4-difluoroanilino)-3-pyrrolidino-1,4-naphthoquinone]	2340	–	MT-4 5 day, percent @ 10 μM [2]: 40% @ 10 μM
O=C1C(Nc2ccc(F)cc2)=C(N2CCCC2)C(=O)c2ccccc21 [Example 30, 2-(N-4-Fluoroanilino)-3-pyrrolidino-1,4-naphthoquinone]	520	4470	–
Nc1ccc2c(c1)C(=O)C(N1CCCC1)=C(Nc1ccc(F)c(F)c1)C2=O [Example 31, 6-Amino-2-(N-3,4-difluoroanilino)-3-pyrrolidino-1,4-naphthoquinone]	1500	300	–
COC(=O)Nc1ccc2c(c1)C(=O)C(N1CCCC1)=C(Nc1ccc(F)c(F)c1)C2=O [Example 32, 6-[(methoxycarbonyl)amino]-2-(N-3,4-difluoroanilino)-3-pyrrolidino-1,4-naphthoquinone]	4000	7000	–
O=C1C(Nc2ccc(F)c(F)c2)=C(N2CCCC2)C(=O)c2ccc([N+](=O)[O-])cc21 [Example 33, 7-Nitro-2-(N-3,4-difluoroanilino)-3-pyrrolidino-1,4-naphthoquinone]	1000	700	–
